# Test results reported in ChEMBL document CHEMBL1201862, “PubChem BioAssay data set” (2004).
#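 Briefly, cells in 96-well plates were exposed to five compound concentrations for 48 h, and endpoints were estimated by linear interpolation. The concentration for 50% growth inhibition is given as GI50.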 Calls of active or inactive are those of the source. No stated cut-off is given here; in the data, active = GI50 up to about 1.1 µM and inactive = higher.
# Key:
# Assay in all cases: DTP human tumour cell line panel, 48 h
# [1] = tested on: A498
# [2] = tested on: UACC-257
# [3] = tested on: OVCAR-4
# [4] = tested on: SF-295
# [5] = tested on: SK-OV-3
# [6] = tested on: IGROV-1
# [7] = tested on: RPMI-8226
# [8] = tested on: HCT-116
# [9] = tested on: HOP-92
# [10] = tested on: 786-0
# [11] = tested on: OVCAR-3
# [12] = tested on: KM12
# [13] = tested on: SK-MEL-28
# [14] = tested on: NCI-H226
# [15] = tested on: HT-29
# [16] = tested on: RXF 393
# [17] = tested on: HCT-15
# [18] = tested on: HOP-62
# [19] = tested on: MDA-N
Structure (SMILES),GI50 [1],GI50 [2],GI50 [3],GI50 [4],GI50 [5],GI50 [6],GI50 [7],GI50 [8],GI50 [9],GI50 [10],GI50 [11],GI50 [12],GI50 [13],GI50 [14],GI50 [15],GI50 [16],GI50 [17] [µM],GI50 [18],GI50 [19]
O=c1[c-](-c2ccccc2)[se]c(-c2ccccc2)[n+]1-c1ccccc1,10 µM (inactive),12.8 µM (inactive),2.35 µM (inactive),3.61 µM (inactive),24.2 µM (inactive),3.71 µM (inactive),29.1 µM (inactive),3.51 µM (inactive),18.6 µM (inactive),10.5 µM (inactive),10 µM (inactive),10.3 µM (inactive),9.31 µM (inactive),3.13 µM (inactive),23 µM (inactive),3.18 µM (inactive),13.2,–,–
CC(=O)Nc1ccc(Cl)c(Cl)c1,–,> 100 µM (inactive),–,> 100 µM (inactive),> 100 µM (inactive),> 100 µM (inactive),> 100 µM (inactive),> 100 µM (inactive),–,> 100 µM (inactive),> 100 µM (inactive),> 100 µM (inactive),> 100 µM (inactive),> 100 µM (inactive),> 100 µM (inactive),> 100 µM (inactive),> 100,> 100 µM (inactive),–
Cc1cc2c(cc1C)[n+]([O-])c(C(=O)C/C(=N/NC(=O)CC#N)C(=O)Nc1ccccc1C(F)(F)F)c(C)[n+]2[O-],52 µM (inactive),44.6 µM (inactive),44 µM (inactive),95.7 µM (inactive),> 100 µM (inactive),> 100 µM (inactive),–,4.05 µM (inactive),–,52.8 µM (inactive),37 µM (inactive),34 µM (inactive),70.8 µM (inactive),26.9 µM (inactive),49.3 µM (inactive),77.1 µM (inactive),36.6,> 100 µM (inactive),–
O=C1C=C(Nc2ccc(Br)cc2)c2ccccc2C1=O,17.2 µM (inactive),13.5 µM (inactive),2.09 µM (inactive),15.8 µM (inactive),16.8 µM (inactive),14.8 µM (inactive),6.73 µM (inactive),13.6 µM (inactive),–,14.6 µM (inactive),7.1 µM (inactive),14.1 µM (inactive),17.2 µM (inactive),18.7 µM (inactive),17.5 µM (inactive),16.7 µM (inactive),5.26,16.9 µM (inactive),–
O=C(O)/C(=C/c1ccccc1[N+](=O)[O-])c1ccccc1,> 100 µM (inactive),> 100 µM (inactive),> 100 µM (inactive),> 100 µM (inactive),> 100 µM (inactive),> 100 µM (inactive),> 100 µM (inactive),> 100 µM (inactive),–,> 100 µM (inactive),> 100 µM (inactive),> 100 µM (inactive),> 100 µM (inactive),> 100 µM (inactive),> 100 µM (inactive),–,> 100,> 100 µM (inactive),–
NC1=NN(c2ccccc2)C(=O)C1/C(=N\NC(=O)c1cc2ccccc2cc1O)C(=O)Nc1ccc(Cl)c(Cl)c1 (stereo unspecified),49.8 µM (inactive),29.7 µM (inactive),16.3 µM (inactive),35.8 µM (inactive),–,28.4 µM (inactive),26 µM (inactive),35.2 µM (inactive),32.7 µM (inactive),31.3 µM (inactive),5.57 µM (inactive),43.6 µM (inactive),83.4 µM (inactive),64.9 µM (inactive),59.2 µM (inactive),49.2 µM (inactive),13.6,65.2 µM (inactive),–
Cc1nnc(Nc2ccccc2)o1,–,> 100 µM (inactive),> 100 µM (inactive),> 100 µM (inactive),> 100 µM (inactive),–,> 100 µM (inactive),> 100 µM (inactive),–,> 100 µM (inactive),> 100 µM (inactive),> 100 µM (inactive),> 100 µM (inactive),> 100 µM (inactive),> 100 µM (inactive),> 100 µM (inactive),> 100,–,> 100 µM (inactive)
COC(=O)C1=C(c2ccc3c(c2)OCO3)O[C@H](c2ccc3c(c2)OCO3)[C@H]1COC(C)=O,24.6 µM (inactive),55.2 µM (inactive),36.6 µM (inactive),34.4 µM (inactive),41 µM (inactive),63.5 µM (inactive),60.4 µM (inactive),51.5 µM (inactive),30.5 µM (inactive),36.2 µM (inactive),55.6 µM (inactive),62.4 µM (inactive),65 µM (inactive),39 µM (inactive),36.2 µM (inactive),40 µM (inactive),53.1,58.5 µM (inactive),–
